These results are taken from patent publication US20140170768A1, “METHOD FOR MONITORING AND ASSESSING PITUITARY FUNCTION” (priority 2012, published 2014).

Each structure is given as a SMILES string.

Holding throughout (format): in vivo, human
Assay [1] concerns patients with Cushing's disease. Nature of the assay: Case One: ACTH and cortisol response to mifepristone in Cushing's disease patients after transphenoidal surgery, with or without radiation therapy. The text has this:
(§1) Hypercortisolism can result from excessive pituitary ACTH secretion, ectopic ACTH synthesis, overproduction of cortisol by an adrenal tumor, and rarely by extra-hypothalamic CRH production. Identifying the cause of excess cortisol production relies upon the sensitivity of pituitary-dependent ACTH secretion to inhibition by pharmacologic doses of dexamethasone. Mifepristone is a glucocorticoid receptor antagonist approved for the treatment of hyperglycemia in patients with Cushing's disease. It was hypothesized that mifepristone, by blocking glucocorticoid receptors, could be used to identify patients with pituitary-dependent hypercortisolism (i.e., Cushing's disease), as ACTH and cortisol levels should rise in these patients following mifepristone administration, while ACTH and cortisol should not change following mifepristone administration in patients with ectopic ACTH or primary adrenal disease (i.e., Cushing's syndrome). To test this hypothesis, patients with either Cushing's Disease or Cushing's Syndrome were administered mifepristone and monitored under the following conditions. Data are presented relating to ACTH and cortisol responses in patients with Cushing's disease following transphenoidal surgery (n=18) (i.e., surgery in which surgical instruments are inserted into part of the brain by going through the nose and the sphenoid bone (a butterfly-shaped bone at the base of the skull) in order to remove tumors of the pituitary gland), patients with Cushing's disease following transphenoidal surgery and pituitary radiation therapy (n=23), and patients with Cushing's syndrome secondary to ectopic ACTH secretion (n=4). All patients received mifepristone 300 mg orally per day. ACTH and cortisol were measured as close to 8 AM as possible using a centralized laboratory (Quest Diagnostics, Collegeville, Pa.) 14 days after commencing mifepristone therapy.

Assay [2] has as its system patients with Cushing's syndrome secondary to ectopic ACTH secretion. Put plainly: Case One: ACTH and cortisol response to mifepristone in Cushing's syndrome secondary to ectopic ACTH secretion.
Description: as §1

Assay [3] relates to person with recurrent Cushing's disease. Put plainly: Case Two: ACTH and cortisol before and after a single mifepristone dose in recurrent Cushing's disease. The note with it: 8 AM the morning following a 300 mg dose. The protocol:
A person with recurrent Cushing's disease following pituitary surgery received a dose of 300 mg mifepristone. ACTH and cortisol were measured at 8 AM prior to and at 8 AM the morning following the dose of mifepristone.

For assay [4], the system named is person with adrenal insufficiency. Put plainly: Case Three: ACTH and cortisol before and after a single mifepristone dose in adrenal insufficiency. Conditions: 8 AM on the day after a single 300 mg dose. The procedure: ACTH and cortisol levels were low (ACTH<[…] and cortisol 2.4 micrograms/deciliter following exogenous ACTH administration). Based upon the finding of both low ACTH and cortisol, the cause of their adrenal insufficiency could be due to pituitary or to hypothalamic disease. […] ACTH and cortisol were measured at 8 AM on the day after they received a single dose of 300 mg mifepristone.

[5] abbreviates: Cushing's disease after surgery and radiation therapy, Day 14 vs Day 0, mifepristone 300 mg/day orally.
The mark [6] stands for this setting: Cushing's disease, no radiation therapy, Day 14 vs Day 0, mifepristone 300 mg/day orally.
[7] abbreviates: Cushing's syndrome due to ectopic ACTH, Day 14 vs Day 0, NS.

As for `CC#C[C@]1(O)CC[C@H]2[C@@H]3CCC4=CC(=O)CCC4=C3[C@@H](c3ccc(N(C)C)cc3)C[C@@]21C` [mifepristone], in assay [1] (setting [5]), the “ACTH s/p RT, Fold change” value was 1.40 ± .45 and the “cortisol s/p RT, Fold change” value was 1.24 ± .23. Further, the “rise in ACTH and cortisol, no radiation therapy versus radiation therapy” value in assay [1] (Cushing's disease no RT compared with s/p RT, mifepristone 300 mg/day, 14 days) is reported as “significantly greater rise”. Moreover, in assay [1] (setting [6]), the “ACTH no RT, Fold change” value was 2.13 ± .96 and the “cortisol no RT, Fold change” value is 1.56 ± .6. Besides, in assay [2] (setting [7]), the “ACTH, Fold change” value was 1.75 ± .75 and the “cortisol, Fold change” value was 1.21 ± .79. For the same compound, the “change in ACTH or cortisol following mifepristone therapy” value in assay [2] (patients with ectopic ACTH, mifepristone 300 mg/day, 14 days) is “substantially no significant change”. Further, the “cortisol Post-mifepristone” value in assay [3] (pre-mifepristone 19.7) was 32.9 micrograms/deciliter. In assay [3] (pre-mifepristone 84), the “ACTH Post-mifepristone” value amounted to 129 picograms/ml plasma. In addition, in assay [4] (pre-mifepristone 2.1), the “cortisol Post-mifepristone” value is 11.3 micrograms/deciliter. The “ACTH Post-mifepristone” value in assay [4] (pre-mifepristone <5) came out at 13 picograms/ml plasma.
